Assay results as given in patent US20240132534A1, “OLIGONUCLEOTIDE PRIMER WITH AN ACYCLIC NUCLEOSIDE STRUCTURE FOR INITIAL CAPPING” (JIANGSU SYNTHGENE BIOTECHNOLOGY CO., LTD., priority 2022, published 2024).

Tests used:
[1] = target: T1, RIG-I (Homo sapiens, UniProt O95786); experiment: Binding ability of mRNA to RIG-I (RNA co-immunoprecipitation, RT-qPCR) in transfected 293T cells; type: cell-based; conditions: eGFP mRNA made with the cap analog, 24 h after transfection
T1 construct: endogenous in cells; host or cells: 293T cells
T1 sequence (O95786 1-925): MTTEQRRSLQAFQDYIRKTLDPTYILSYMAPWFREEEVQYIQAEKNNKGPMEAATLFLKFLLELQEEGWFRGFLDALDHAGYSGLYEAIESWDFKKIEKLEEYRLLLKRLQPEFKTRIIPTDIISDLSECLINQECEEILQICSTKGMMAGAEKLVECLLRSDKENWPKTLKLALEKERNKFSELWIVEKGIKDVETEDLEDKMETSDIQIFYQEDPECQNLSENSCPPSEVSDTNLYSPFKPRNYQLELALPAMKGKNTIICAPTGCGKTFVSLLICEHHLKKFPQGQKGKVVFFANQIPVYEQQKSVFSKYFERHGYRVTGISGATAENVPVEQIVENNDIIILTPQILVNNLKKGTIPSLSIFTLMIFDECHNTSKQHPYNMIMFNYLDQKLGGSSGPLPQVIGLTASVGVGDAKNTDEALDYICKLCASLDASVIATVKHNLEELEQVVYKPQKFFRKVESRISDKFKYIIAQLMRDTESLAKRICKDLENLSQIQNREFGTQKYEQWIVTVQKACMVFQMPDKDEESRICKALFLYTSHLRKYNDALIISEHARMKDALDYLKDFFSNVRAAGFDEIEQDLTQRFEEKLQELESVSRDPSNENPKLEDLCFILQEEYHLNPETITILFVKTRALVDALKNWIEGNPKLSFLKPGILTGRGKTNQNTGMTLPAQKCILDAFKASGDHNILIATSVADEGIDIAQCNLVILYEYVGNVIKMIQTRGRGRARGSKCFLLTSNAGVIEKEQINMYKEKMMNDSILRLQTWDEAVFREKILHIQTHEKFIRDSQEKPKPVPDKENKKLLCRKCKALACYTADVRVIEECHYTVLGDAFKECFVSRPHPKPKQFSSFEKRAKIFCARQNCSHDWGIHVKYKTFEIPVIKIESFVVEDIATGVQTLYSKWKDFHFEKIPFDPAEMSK
Text: Test Example 2: Determination of the binding ability of mRNA to RIG I
RIG-I mainly includes two repeated caspase activation and recruitment domains (CARD) at the N-terminus, a helicase structure in the middle and a RNA domain at the C-terminus. The overexpression of the N-terminal CARD domain of RIG-I can promote cells to secrete type I interferon (IFN) even in the absence of viral infection. Therefore, this domain is mainly responsible for transmitting signals downstream. RIG-I can recognize exogenous RNA, mediate the production of cytokines and chemokines, and recruit innate immune cells to trigger immune responses. mRNA with high immunogenicity is easily recognized and combined by RIG. Thus, mRNA with strong binding ability to RIG-1 has high immunogenicity.
In this study, 293T cells were transfected with the eGFP mRNAs prepared by in vitro transcription initiated by the oligonucleotide primers with an acyclic nucleoside structure for initial capping in Examples 1-4, 6, 7, and 11 and the cap analogs in Comparative Examples 1-2, and collected 24 hours later. The intracellular protein RIG I and RNA bound thereto were co-immunoprecipitated by the RNA co-immunoprecipitation method. Finally, reverse transcription and real-time quantitative PCR were performed on these mRNAs.
The specific cell culture conditions were the same as above. Cells were collected 24 hours after transfection. First, a fixing solution was added for incubation. After 10 min, glycine solution of an appropriate concentration was added to terminate the reaction, and cells were collected. The collected cells were lysed using the lysis solution, centrifuged at 12,000 rpm and 4° C. for 10 min. The supernatant was collected and incubated with an appropriate amount of RIG-I or IgG antibody on a shaker at 4° C. overnight. Then 20 μl of Protein A/G magnetic beads were added, incubated at 4° C. for 4 h, and washed on a magnetic stand. After washing was completed, RNA was extracted and used for subsequent RT-qPCR to determine the expression results.

[2] = target: T2, T7 RNA polymerase (Escherichia phage T7, UniProt P00573); experiment: In vitro transcription yield of mRNA by co-transcriptional capping; type: biochemical; conditions: for Yield: mRNA from 20 μl IVT, 1 μg template, 37° C. 2 h, Nanodrop One; for Increased yield relative to Comparative Example 1: mRNA IVT yield vs 50 μg of Comparative Example 1
T2 sequence (P00573 whole entry): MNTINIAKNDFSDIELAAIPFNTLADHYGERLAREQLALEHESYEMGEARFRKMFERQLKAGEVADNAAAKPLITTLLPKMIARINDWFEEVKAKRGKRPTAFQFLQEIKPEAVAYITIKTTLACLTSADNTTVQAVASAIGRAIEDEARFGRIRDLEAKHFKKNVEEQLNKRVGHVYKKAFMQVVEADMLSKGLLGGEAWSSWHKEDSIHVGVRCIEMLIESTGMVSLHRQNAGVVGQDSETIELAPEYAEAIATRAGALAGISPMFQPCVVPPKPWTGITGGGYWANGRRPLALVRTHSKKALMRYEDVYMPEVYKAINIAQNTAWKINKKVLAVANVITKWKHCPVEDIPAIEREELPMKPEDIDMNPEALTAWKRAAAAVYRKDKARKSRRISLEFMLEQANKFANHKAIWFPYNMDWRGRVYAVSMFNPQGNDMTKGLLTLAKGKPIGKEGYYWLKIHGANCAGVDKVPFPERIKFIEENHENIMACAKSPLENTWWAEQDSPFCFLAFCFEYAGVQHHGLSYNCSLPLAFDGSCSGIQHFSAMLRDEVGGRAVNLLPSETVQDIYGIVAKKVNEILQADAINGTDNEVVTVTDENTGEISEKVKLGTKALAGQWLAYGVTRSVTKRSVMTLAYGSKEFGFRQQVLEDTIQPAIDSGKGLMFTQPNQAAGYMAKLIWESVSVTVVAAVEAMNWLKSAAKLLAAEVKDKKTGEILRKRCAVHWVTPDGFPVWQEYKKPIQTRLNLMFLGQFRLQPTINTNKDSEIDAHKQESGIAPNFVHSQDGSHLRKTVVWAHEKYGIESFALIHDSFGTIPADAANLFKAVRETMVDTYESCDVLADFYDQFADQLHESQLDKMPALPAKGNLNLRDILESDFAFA
Description: (§1) Test Example 1: Determination of in vitro transcription yield and capping efficiency of mRNA
(§2) In vitro synthesis of mRNA was performed using the oligonucleotide primer with an acyclic nucleoside structure for initial capping by the co-transcriptional capping method. First, the plasmid was digested with NotI overnight at […]. DNA template was extracted to synthesize mRNA by in vitro transcription. The oligonucleotide primers with an acyclic nucleoside structure for initial capping in Examples 1-4, 6, 7, and 11 and the capping analogs in Comparative Examples 1-2 were used as cap structures respectively.
Note: During the experiment, the volume of materials required for the system was first calculated, and then the sample was added. The system was firstly added with sterile enzyme-free water, then added with 10X buffer, NTPs, and cap structure subsequently, mixed, centrifuged gently, then added with nuclease inhibitor, inorganic pyrophosphatase, T7 RNA polymerase, and linearized DNA template, mixed thoroughly, centrifuged gently, and incubated at 37° C. After 2 h, the system was added with 1U of DNase I and incubated at 37° C. for another 30 min to remove the DNA template. Then RNA was purified, usually by the magnetic bead purification method. The purified mRNA was dissolved in sterile enzyme-free water, and then quantitatively measured using Nanodrop One.

[3] = target: T2, T7 RNA polymerase; experiment: IVT capping rate of mRNA by LC-MS; type: biochemical; conditions: for Capping rate: LC-MS after RNase H cleavage; for Increased capping rate relative to Comparative Example 1: vs capping rate 93.5% of Comparative Example 1
Description: as §1, §2
Liquid chromatography mass spectrometry (LC-MS) was used to determine the IVT capping rate of mRNA with different initial cap analogs. First, it is necessary to design a labeled DNA probe that matches the starting base of the transcript product mRNA, and usually the label is biotin. The streptavidin-labeled magnetic beads were washed, and incubated with the synthesized DNA probe, mRNA and 10×RNase H reaction buffer at room temperature for 30 min. The mixture was mixed slowly while incubating, then added with 20 μl of RNase. H (5U/μl), incubated at 37° C. for 3 h, and mixed thoroughly every half hour. After the incubation was completed, the magnetic beads were washed and added with 100 μL of 75% methanol heated to 80° C. The mixture was heated to 80° C. on a hot plate and kept for 3 min, and then placed on a magnetic stand. The supernatant was collected and dried at room temperature for 45 min to 10 μl using an evaporative centrifuge. The sample was then resuspended in 50 μl of 100 μM EDTA/1% MeOH, which was ready for LC-MS analysis to determine RNA capping during the transcription reaction. Since there was a significant difference in molecular weight between capped and uncapped bases, the capping rate of mRNA transcription initiated by different cap analogs can be determined through the difference in molecular mass.

[4] = target: T7 transcription (Escherichia phage T7, UniProt P00573); conditions: cited from earlier work
Sequence of T7 transcription (P00573 whole entry): as above

| Compound | Relative binding ability to RIG-I [1] | Yield [2] [µg] | Capping rate [3] [%] | Increased yield relative to Comparative Example 1 [2] [%] | Increased capping rate relative to Comparative Example 1 [3] [%] | Capped RNA prepared per milliliter of transcription reaction system ([4]; per milliliter of transcription reaction) [mg] | Immunogenicity of transcription products ([4]; vs ARCA) |
| --- | --- | --- | --- | --- | --- | --- | --- |
| COC1C(OP(=O)(O)OC[C@H](CO)O[C@H](CO)n2cnc3c(=O)[nH]c(N)nc32)[C@@H](COP(=O)(O)OP(=O)(O)OP(=O)([O-])OC[C@H]2O[C@@H](n3c[n+](C)c4c(=O)[nH]c(N)nc43)C(O)C2O)O[C@H]1n1cnc2c(N)ncnc21 (some centres unmarked) [Comparative Example 2, reference compound] | 4.0 ± 0.31 | 41 | 90.1 | – | – | – | – |
| COC[C@@H](O[C@@H](COP(=O)(O)OC[C@H](CO)O[C@H](CO)n1cnc2c(=O)[nH]c(N)nc21)COP(=O)(O)OP(=O)([O-])OP(=O)(O)OC[C@H](CO)O[C@H](CO)n1c[n+](C)c2c(=O)[nH]c(N)nc21)n1cnc2c(N)ncnc21 [Example 4] | 2.8 ± 0.62 | 45 | 93.3 | – | – | – | – |
| CO[C@H]1C(OP(=O)(O)OC[C@H]2O[C@@H](n3cnc4c(=O)[nH]c(N)nc43)[C@@H](O)C2O)[C@@H](COP(=O)(O)OP(=O)([O-])OP(=O)(O)OC[C@H](CO)O[C@H](CO)n2c[n+](C)c3c(=O)[nH]c(N)nc32)O[C@H]1n1cnc2c(N)ncnc21 (some centres unmarked) [Example 1] | – | 72 | 99.3 | 44 | 5.8 | – | – |
| C[n+]1cn([C@@H](CO)O[C@@H](CO)COP(=O)([O-])OP(=O)(O)OP(=O)(O)OC[C@]23COC(C2OP(=O)(O)OC[C@H]2O[C@@H](n4cnc5c(=O)[nH]c(N)nc54)C(O)C2O)[C@H](n2cnc4c(N)ncnc42)O3)c2nc(N)[nH]c(=O)c21 (some centres unmarked) [Example 7] | 2.1 ± 0.21 | 68 | 97.6 | 36 | 4.1 | – | – |
| COC1C(OP(=O)(O)OC[C@H]2O[C@@H](n3cnc4c(=O)[nH]c(N)nc43)C(O)C2O)[C@@H](COP(=O)(O)OP(=O)(O)OP(=O)([O-])OC[C@H]2O[C@@H](n3c[n+](C)c4c(=O)[nH]c(N)nc43)C(O)C2O)O[C@H]1n1cnc2c(N)ncnc21 (stereo in doubt) [Comparative Example 1, ^m7GpppA2′OMepG, reference compound] | 3.1±0.51 | 50 | 93.5 | – | – | 4 | lower than that of ARCA |
| COC[C@@H](COP(=O)(O)OP(=O)([O-])OP(=O)(O)OC[C@H]1O[C@@H](n2cnc3c(N)ncnc32)C(OC)C1OP(=O)(O)OC[C@H]1O[C@@H](n2cnc3c(=O)[nH]c(N)nc32)C(O)C1O)O[C@H](CO)n1c[n+](C)c2c(=O)[nH]c(N)nc21 (stereo in doubt) [Example 11] | 1.5±0.25 | 71 | 96.8 | 42 | 3.3 | – | – |
| COCCOC1C(OP(=O)(O)OC[C@H]2O[C@@H](n3cnc4c(=O)[nH]c(N)nc43)C(O)C2O)[C@@H](COP(=O)(O)OP(=O)(O)OP(=O)([O-])OC[C@H](CO)O[C@H](CO)n2c[n+](C)c3c(=O)[nH]c(N)nc32)O[C@H]1n1cnc2c(N)ncnc21 (some centres unmarked) [Example 6] | 1.4±0.32 | 44 | 95.2 | – | – | – | – |
| CO[C@H]1C(OP(=O)(O)OC[C@H](CO)O[C@H](CO)n2cnc3c(=O)[nH]c(N)nc32)[C@@H](COP(=O)(O)OP(=O)([O-])OP(=O)(O)OC[C@H](CO)O[C@H](CO)n2c[n+](C)c3c(=O)[nH]c(N)nc32)O[C@H]1n1cnc2c(N)ncnc21 (some centres unmarked) [Example 2] | 2.4 ± 0.34 | 58 | 96.5 | – | 3 | – | – |
